Data as given in patent publication US8173638B2 (Boehringer Ingelheim International GmbH, priority 2006, dated 2012).
Where two headings read alike, the source gives them in different places.

Target: T1, human CB2R (Homo sapiens, UniProt P34972)
T1 construct: host or cells: CHO cells
Assay: CB2R mediated modulation of cAMP synthesis
Assay type: cell-based
Conditions: for Emax: 0.5 h, read-out: Agonist Efficacy (%); for agonistic activity: found through the use of the described assays (CB2 agonists), qualitative statement
Experimental: B. CB2R Mediated Modulation of cAMP Synthesis:
CHO cells expressing human CB2R (Euroscreen) were plated at a density of 5000 cells per well in 384 well plates and incubated overnight at 37° C. After removing the media, the cells were treated with test compounds diluted in stimulation buffer containing 1 mM IBMX, 0.25% BSA and 10 uM Forskolin. The assay was incubated for 30 minutes at 37° C. Cells were lysed and the cAMP concentration was measured using DiscoverX-XS cAMP kit, following the manufacturer's protocol. In this setting, agonists will decrease forskolin induced production of cAMP while inverse agonists will further increase forskolin induced production of cAMP. EC50 of agonists were calculated as follows. The maximal amount of cAMP produced by forskolin compared to the level of cAMP inhibited by 1 uM CP55940 is defined as 100%. […] Data was analyzed using a four-parameter logistic model. (Model 205 of XLfit 4.0).

[1] = CHO cells expressing human CB2R, cAMP inhibited by 1 uM CP55940 defined as 100%

T1 sequence (P34972 whole entry): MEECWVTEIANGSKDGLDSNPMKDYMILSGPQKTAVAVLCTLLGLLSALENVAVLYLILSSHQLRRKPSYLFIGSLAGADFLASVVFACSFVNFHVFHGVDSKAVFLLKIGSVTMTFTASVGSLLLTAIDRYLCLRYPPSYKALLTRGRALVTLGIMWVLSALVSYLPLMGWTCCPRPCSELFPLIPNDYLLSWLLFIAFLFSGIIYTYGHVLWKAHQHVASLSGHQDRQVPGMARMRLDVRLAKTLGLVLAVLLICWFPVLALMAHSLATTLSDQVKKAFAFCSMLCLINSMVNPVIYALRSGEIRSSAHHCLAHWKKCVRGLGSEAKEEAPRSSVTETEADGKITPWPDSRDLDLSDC

With `CC(C)(C)c1cc(NC(=O)N2CCCN(C(=O)CC3CCCC3)CC2)no1` [Compound 140, 4-(2-Cyclopentyl-acetyl)-[1,4]diazepane-1-carboxylic acid (5-tert-butyl-isoxazol-3-yl)-amide] the EC50 was 12 nM and the Emax (CHO) was 103%.

With `CCC(C)c1cc(NC(=O)N2CCCN(C(=O)C3CCOCC3)CC2)on1` (stereo not shown) [Compound 193, 4-(Tetrahydro-pyran-4-carbonyl)-[1,4]diazepane-1-carboxylic acid (3-sec-butyl-isoxazol-5-yl)-amide] the EC50 was 41 nM and the Emax (CHO) was 106%.

In the case of `O=C(Nc1nc2c(s1)CCCC2)N1CCCN(C(=O)C2CCOCC2)CC1` [4-(Tetrahydro-pyran-4-carbonyl)-[1,4]diazepane-1-carboxylic acid (4,5,6,7-tetrahydro-benzothiazol-2-yl)-amide], the agonistic activity is reported as “agonistic activity”.

With `O=C(CCC(F)(F)F)N1CCCN(C(=O)Nc2ccc3ccccc3c2)CC1` [4-(4,4,4-Trifluoro-butyryl)-[1,4]diazepane-1-carboxylic acid naphthalen-2-ylamide] the agonistic activity was “agonistic activity”.

`CC(C)(C)c1cc(NC(=O)N2CCCN(C(=O)C3CCS(=O)(=O)CC3)CC2)no1` [4-(1,1-Dioxo-hexahydro-1λ^6-thiopyran-4-carbonyl)-[1,4]diazepane-1-carboxylic acid (5-tert-butyl-isoxazol-3-yl)-amide] was tested, and the agonistic activity was “agonistic activity”.

`CC(C)(C)c1cc(NC(=O)N2CCCN(C(=O)C3CCN(S(C)(=O)=O)CC3)CC2)no1` [4-(1-Methanesulfonyl-piperidine-4-carbonyl)-[1,4]diazepane-1-carboxylic acid (5-tert-butyl-isoxazol-3-yl)-amide] was tested, and the agonistic activity was “agonistic activity”.

`CC(=O)N1CCN(C(=O)N2CCCN(C(=O)Nc3cc(C(C)(C)C)on3)CC2)CC1` [4-(4-Acetyl-piperazine-1-carbonyl)-[1,4]diazepane-1-carboxylic acid (5-tert-butyl-isoxazol-3-yl)-amide] was tested, and the agonistic activity was “agonistic activity”.

In the case of `CCCCCc1ccc(NC(=O)N2CCCN(C(=O)CC3CCCC3)CC2)cc1` [Compound 49, 4-(2-Cyclopentyl-acetyl)-[1,4]diazepane-1-carboxylic acid (4-n-pentyl-phenyl)-amide], the Emax [1] is reported as 73% and the EC50 (read-out: hCB2 cAMP EC50) is reported as 48 nM.

`O=C(Nc1nc(C2CC2)cs1)N1CCCN(C(=O)c2ccc(Cl)cc2)CC1` [Compound 166, 4-(4-Chloro-benzoyl)-[1,4]diazepane-1-carboxylic acid (4-cyclopropyl-thiazol-2-yl)-amide] gave an Emax [1] of 91% and an EC50 (read-out: hCB2 cAMP EC50) of 90 nM.

In the case of `CC(C)c1ccc(NC(=O)N2CCCN(C(=O)c3ccncc3)CC2)cc1` [4-(Pyridine-4-carbonyl)-[1,4]diazepane-1-carboxylic acid (4-isopropyl-phenyl)-amide], the agonistic activity is reported as “agonistic activity”.

With `O=C(CCC1CCCC1)N1CCCN(C(=O)Nc2ccc(C(F)(F)F)cc2)CC1` [4-(3-Cyclopentyl-propionyl)-[1,4]diazepane-1-carboxylic acid (4-trifluoromethyl-phenyl)-amide] the agonistic activity was “agonistic activity”.

For `CC(C)c1ccc(NC(=O)N2CCCN(C(=O)c3cccc(Cl)c3)CC2)cc1` [4-(3-Chloro-benzoyl)-[1,4]diazepane-1-carboxylic acid (4-isopropyl-phenyl)-amide], the agonistic activity was “agonistic activity”.

`CC(C)(C)c1cc(NC(=O)N2CCCN(C(=O)C3CCC(N)CC3)CC2)no1` (stereo not shown) [4-(4-Amino-cyclohexanecarbonyl)-[1,4]diazepane-1-carboxylic acid (5-tert-butyl-isoxazol-3-yl)-amide] was tested, and the agonistic activity was “agonistic activity”.

In the case of `CC(C)c1ccc(NC(=O)N2CCCN(C(=O)CCC3CC3)CC2)cc1` [4-(3-Cyclopropyl-propionyl)-[1,4]diazepane-1-carboxylic acid (4-isopropyl-phenyl)-amide], the agonistic activity is reported as “agonistic activity”.

In the case of `CC(C)(C)c1cc(NC(=O)N2CCCN(C(=O)NC3CCCCC3)CC2)no1`, the agonistic activity is reported as “agonistic activity”.

With `CCCCc1ccc(NC(=O)N2CCCN(C(=O)CC3CCCCC3)CC2)cc1` [4-(2-Cyclohexyl-acetyl)-[1,4]diazepane-1-carboxylic acid (4-butyl-phenyl)-amide] the agonistic activity was “agonistic activity”.

`CC(C)(C)c1cc(NC(=O)N2CCCN(C(=O)N3CCS(=O)(=O)CC3)CC2)on1` [4-(1,1-Dioxo-1λ^6-thiomorpholine-4-carbonyl)-[1,4]diazepane-1-carboxylic acid (3-tert-butyl-isoxazol-5-yl)-amide] was tested, and the agonistic activity was “agonistic activity”.

`Cc1ccc(C(=O)N2CCCN(C(=O)Nc3ccc4ccccc4c3)CC2)cc1` [4-(4-Methyl-benzoyl)-[1,4]diazepane-1-carboxylic acid naphthalen-2-ylamide] was tested, and the agonistic activity was “agonistic activity”.

In the case of `CCCCCc1ccc(NC(=O)N2CCCN(C(=O)CCC3CCCC3)CC2)cc1` [4-(3-Cyclopentyl-propionyl)-[1,4]diazepane-1-carboxylic acid (4-pentyl-phenyl)-amide], the agonistic activity is reported as “agonistic activity”.

`CCC(C)c1cc(NC(=O)N2CCCN(C(=O)C3CCOCC3)CC2)n(C)n1` (stereo not shown) [4-(Tetrahydro-pyran-4-carbonyl)-[1,4]diazepane-1-carboxylic acid (5-sec-butyl-2-methyl-2H-pyrazol-3-yl)-amide] was tested, and the agonistic activity was “agonistic activity”.

In the case of `N#Cc1ccc(C(=O)N2CCCN(C(=O)Nc3ccc4ccccc4c3)CC2)cc1` [4-(4-Cyano-benzoyl)-[1,4]diazepane-1-carboxylic acid naphthalen-2-ylamide], the agonistic activity is reported as “agonistic activity”.

For `CC(C)c1ccc(NC(=O)N2CCCN(C(=O)CC3CCCCC3)CC2)cc1` [4-(2-Cyclohexyl-acetyl)-[1,4]diazepane-1-carboxylic acid (4-isopropyl-phenyl)-amide], the agonistic activity was “agonistic activity”.

With `O=C(Nc1ccc(Oc2ccccc2)nc1)N1CCCN(C(=O)C2CCOCC2)CC1` [4-(Tetrahydro-pyran-4-carbonyl)-[1,4]diazepane-1-carboxylic acid (6-phenoxy-pyridin-3-yl)-amide] the agonistic activity was “agonistic activity”.

`CCCCc1ccc(NC(=O)N2CCCN(C(=O)CCC3CCCCC3)CC2)cc1` [4-(3-Cyclohexyl-propionyl)-[1,4]diazepane-1-carboxylic acid (4-butyl-phenyl)-amide] was tested, and the agonistic activity was “agonistic activity”.

In the case of `CC(C)(C)c1cc(NC(=O)N2CCCN(C(=O)C3CCCO3)CC2)no1` (stereo not shown) [4-(Tetrahydro-furan-2-carbonyl)-[1,4]diazepane-1-carboxylic acid (5-tert-butyl-isoxazol-3-yl)-amide], the agonistic activity is reported as “agonistic activity”.

In the case of `O=C(CC1CCCC1)N1CCCN(C(=O)Nc2ccc(Br)c(C(F)(F)F)c2)CC1` [Compound 132, 4-(2-Cyclopentyl-acetyl)-[1,4]diazepane-1-carboxylic acid (4-bromo-3-trifluoromethyl-phenyl)-amide], the Emax [1] is reported as 104% and the EC50 (read-out: hCB2 cAMP EC50) is reported as 13 nM.

`CC(C)(C)c1cc(NC(=O)N2CCCN(C(=O)C3CCC(F)(F)CC3)CC2)no1` [Compound 144, 4-(4,4-Difluoro-cyclohexanecarbonyl)-[1,4]diazepane-1-carboxylic acid (5-tert-butyl-isoxazol-3-yl)-amide] gave an EC50 of 1.3 nM and an Emax (CHO) of 98%.

For `O=C(Nc1nc(-c2ccccc2)cs1)N1CCCN(C(=O)C2CCC(O)CC2)CC1` (stereo not shown) [4-(4-Hydroxy-cyclohexanecarbonyl)-[1,4]diazepane-1-carboxylic acid (4-phenyl-thiazol-2-yl)-amide], the agonistic activity was “agonistic activity”.

In the case of `CC(C)(C)CC(=O)N1CCCN(C(=O)Nc2ccc3ccccc3c2)CC1` [4-(3,3-Dimethyl-butyryl)-[1,4]diazepane-1-carboxylic acid naphthalen-2-ylamide], the agonistic activity is reported as “agonistic activity”.

In the case of `Cc1nc(NC(=O)N2CCCN(C(=O)C3CCC(F)(F)CC3)CC2)sc1C(C)(C)C` [Compound 169, 4-(4,4-Difluoro-cyclohexanecarbonyl)-[1,4]diazepane-1-carboxylic acid (5-tert-butyl-4-methyl-thiazol-2-yl)-amide], the Emax [1] is reported as 95% and the EC50 (read-out: hCB2 cAMP EC50) is reported as 0.7 nM.

`CC(C)(C)c1cc(NC(=O)N2CCCN(C(=O)C3CCC(F)(F)CC3)CC2)no1` [4-(4,4-Difluoro-cyclohexanecarbonyl)-[1,4]diazepane-1-carboxylic acid (5-tert-butyl-isoxazol-3-yl)-amide] was tested, and the agonistic activity was “agonistic activity”.

With `CC(C)c1ccc(NC(=O)N2CCCN(C(=O)CC(C)(C)C)CC2)cc1` [4-(3,3-Dimethyl-butyryl)-[1,4]diazepane-1-carboxylic acid (4-isopropyl-phenyl)-amide] the agonistic activity was “agonistic activity”.

With `O=C(Nc1ccc(SC(F)(F)F)cc1)N1CCCN(C(=O)C2CCCCC2)CC1` [4-Cyclohexanecarbonyl-[1,4]diazepane-1-carboxylic acid (4-trifluoromethylsulfanyl-phenyl)-amide] the agonistic activity was “agonistic activity”.

Compound `O=C(Nc1ccc2ccccc2c1)N1CCCN(C(=O)c2cc(Cl)ccc2Cl)CC1` [Compound 90, 4-(2,5-Dichloro-benzoyl)-[1,4]diazepane-1-carboxylic acid naphthalen-2-ylamide] has an Emax [1] of 91% and an EC50 (read-out: hCB2 cAMP EC50) of 20 nM.

`Cc1sc(NC(=O)N2CCCN(C(=O)C3CCOCC3)CC2)nc1C(C)(C)C` [4-(Tetrahydro-pyran-4-carbonyl)-[1,4]diazepane-1-carboxylic acid (4-tert-butyl-5-methyl-thiazol-2-yl)-amide] was tested, and the agonistic activity was “agonistic activity”.
